This note sets out measurements from US20250092017A1, “2-PIPERIDYL OR 2-PYRAZOLYL SUBSTITUTED PYRIMIDINE COMPOUND SERVING AS EGFR INHIBITOR” (SUZHOU PUHE BIOPHARMA CO., LTD., priority 2022, published 2025).

A word on the CLint scaled: it is the rate of metabolic loss divided by the concentration. For orientation: TGI means the reduction of tumour growth relative to the control group.

Where two headings read alike, the source gives them in different places.

Series [1] has as its system Ba/F3-FL-EGFR-del19-C797S. Description: CellTiter-Glo proliferation, Ba/F3-FL-EGFR-del19-C797S. The settings on record: read-out: Ba/F3-FL-EGFR-del19-C797S IC50/nM. It counts as cell-based. The method in brief:
(§1)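 Ba/F3 lines dependent on the indicated EGFR variants were treated with compounds at a final DMSO concentration of 0.1% at 37 °C, 5% CO2. Viability was read by CellTiter-Glo luminescence, and inhibition rate was normalised to DMSO-treated cells (max) and medium-only wells (min). IC50 came from inhibition curves.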

Series [2] addresses EGFR (L858R/T790M/C797S) (Homo sapiens, UniProt P00533, C797S/L858R/T790M). Description: MSA (Mobility Shift Assay) kinase activity, EGFR-L858R-T790M-C797S. It counts as biochemical. The method in brief: (§2)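 Kinase preincubated with compound 10 min at room temperature, then reaction started with ATP plus substrate in 1x kinase buffer and run at room temperature. Substrate-to-product conversion read by mobility shift; % inhibition normalised to no-enzyme and no-compound controls, IC50 from variable-slope four-parameter fit.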

Series [3] deals with Ba/F3-FL-EGFR-L858R-T790M-C797S (Homo sapiens, UniProt P00533, T790M/C797S/L858R, cells depend on it). Briefly: CellTiter-Glo proliferation, Ba/F3-FL-EGFR-L858R-T790M-C797S. It counts as cell-based. To be noted: 72 hours, read-out: Ba/F3-FL-EGFR-L858R-T790M-C797S IC50/nM. The method in brief: as §1
Sequence of Ba/F3-FL-EGFR-L858R-T790M-C797S (P00533 whole entry T790M/C797S/L858R): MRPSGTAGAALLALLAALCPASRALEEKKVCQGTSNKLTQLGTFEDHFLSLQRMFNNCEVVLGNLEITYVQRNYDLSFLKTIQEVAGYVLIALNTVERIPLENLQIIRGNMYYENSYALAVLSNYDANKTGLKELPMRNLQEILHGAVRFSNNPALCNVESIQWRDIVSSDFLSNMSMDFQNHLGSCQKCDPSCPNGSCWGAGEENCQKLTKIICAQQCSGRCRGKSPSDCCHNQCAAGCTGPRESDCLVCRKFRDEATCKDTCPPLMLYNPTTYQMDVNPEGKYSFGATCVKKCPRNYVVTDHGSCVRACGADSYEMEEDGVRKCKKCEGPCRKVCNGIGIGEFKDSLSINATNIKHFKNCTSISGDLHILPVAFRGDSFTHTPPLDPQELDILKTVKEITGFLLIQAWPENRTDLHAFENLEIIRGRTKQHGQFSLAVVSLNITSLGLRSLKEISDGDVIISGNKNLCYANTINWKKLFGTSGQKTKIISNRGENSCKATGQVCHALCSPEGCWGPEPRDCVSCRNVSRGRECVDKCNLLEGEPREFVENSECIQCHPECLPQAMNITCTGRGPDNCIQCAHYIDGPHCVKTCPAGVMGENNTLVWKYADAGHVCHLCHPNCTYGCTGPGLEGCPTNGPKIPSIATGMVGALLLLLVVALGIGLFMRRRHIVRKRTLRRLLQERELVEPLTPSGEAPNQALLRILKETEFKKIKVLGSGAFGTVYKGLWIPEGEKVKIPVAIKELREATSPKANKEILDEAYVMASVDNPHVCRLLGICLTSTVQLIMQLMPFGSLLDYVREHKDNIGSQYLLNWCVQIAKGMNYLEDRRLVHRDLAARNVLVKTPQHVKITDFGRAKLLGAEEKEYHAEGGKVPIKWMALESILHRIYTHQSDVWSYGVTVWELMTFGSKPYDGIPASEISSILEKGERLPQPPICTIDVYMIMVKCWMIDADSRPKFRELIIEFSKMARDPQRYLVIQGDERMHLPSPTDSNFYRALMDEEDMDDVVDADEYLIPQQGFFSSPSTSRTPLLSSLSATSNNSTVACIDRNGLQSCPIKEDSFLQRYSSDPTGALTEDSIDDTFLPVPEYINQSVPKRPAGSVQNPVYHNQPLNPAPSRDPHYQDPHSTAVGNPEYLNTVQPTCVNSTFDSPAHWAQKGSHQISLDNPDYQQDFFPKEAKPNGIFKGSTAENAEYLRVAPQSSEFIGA
On the technique in general: ATP-based viability assays read luminescence as a measure of living cells.

Series [4] is described as follows: Liver microsome stability test, human. It is filed as in vitro ADME. To be noted: human liver microsomes 0.5 mg/ml, compound 1 μM, NADPH 1 mM, within 60 minutes. The procedure: (§3) The compounds of the present disclosure were subjected to a liver microsome stability test. The compounds to be tested were co-incubated with liver microsomes of different species with or without the addition of NADPH. The final concentration of the compounds to be tested in the test system was 1 μM. The final concentration of NADPH was 1 mM, and the final concentration of liver microsomes was 0.5 mg/ml.
(In general: Liver microsomes are a subcellular fraction often used to study metabolism.)

Series [5] can be described thus: Liver microsome stability test, mouse. It is filed as in vitro ADME. The settings on record: mouse liver microsomes 0.5 mg/ml, compound 1 μM, NADPH 1 mM, within 60 minutes. The method, then:
as §3

Series [6] addresses EGFR (wild-type) (Homo sapiens, UniProt P00533). Briefly: MSA (Mobility Shift Assay) kinase activity, EGFR wild type. The settings on record: read-out: EGFR wt/ IC50/nM. It counts as biochemical. The method in brief:
as §2

The target of series [7] is T1, Ba/F3-TEL-EGFR-L858R-C797S (Homo sapiens, UniProt P00533, C797S/L858R, cells depend on it).
T1 construct: fused on or other part: N-terminal TEL (ETV6) oligomerising part fused to the EGFR intracellular/kinase part; P41212 (Transcription factor ETV6)
Briefly: CellTiter-Glo proliferation, Ba/F3-TEL-EGFR-L858R-C797S. It is filed as cell-based. The settings on record: 72 hours, read-out: Ba/F3-TEL-EGFR-L858R-C797S IC50/nM. In short, it runs like this: as §1

The target of series [8] is Ba/F3-FL-EGFR-L858R (Homo sapiens, UniProt P00533, L858R, cells depend on it). Briefly: CellTiter-Glo proliferation, Ba/F3-FL-EGFR-L858R. The settings on record: 72 hours, read-out: Ba/F3-FL-EGFR-L858R IC50/nM. It is filed as cell-based. In short, it runs like this: as §1
Sequence of Ba/F3-FL-EGFR-L858R (P00533 whole entry L858R): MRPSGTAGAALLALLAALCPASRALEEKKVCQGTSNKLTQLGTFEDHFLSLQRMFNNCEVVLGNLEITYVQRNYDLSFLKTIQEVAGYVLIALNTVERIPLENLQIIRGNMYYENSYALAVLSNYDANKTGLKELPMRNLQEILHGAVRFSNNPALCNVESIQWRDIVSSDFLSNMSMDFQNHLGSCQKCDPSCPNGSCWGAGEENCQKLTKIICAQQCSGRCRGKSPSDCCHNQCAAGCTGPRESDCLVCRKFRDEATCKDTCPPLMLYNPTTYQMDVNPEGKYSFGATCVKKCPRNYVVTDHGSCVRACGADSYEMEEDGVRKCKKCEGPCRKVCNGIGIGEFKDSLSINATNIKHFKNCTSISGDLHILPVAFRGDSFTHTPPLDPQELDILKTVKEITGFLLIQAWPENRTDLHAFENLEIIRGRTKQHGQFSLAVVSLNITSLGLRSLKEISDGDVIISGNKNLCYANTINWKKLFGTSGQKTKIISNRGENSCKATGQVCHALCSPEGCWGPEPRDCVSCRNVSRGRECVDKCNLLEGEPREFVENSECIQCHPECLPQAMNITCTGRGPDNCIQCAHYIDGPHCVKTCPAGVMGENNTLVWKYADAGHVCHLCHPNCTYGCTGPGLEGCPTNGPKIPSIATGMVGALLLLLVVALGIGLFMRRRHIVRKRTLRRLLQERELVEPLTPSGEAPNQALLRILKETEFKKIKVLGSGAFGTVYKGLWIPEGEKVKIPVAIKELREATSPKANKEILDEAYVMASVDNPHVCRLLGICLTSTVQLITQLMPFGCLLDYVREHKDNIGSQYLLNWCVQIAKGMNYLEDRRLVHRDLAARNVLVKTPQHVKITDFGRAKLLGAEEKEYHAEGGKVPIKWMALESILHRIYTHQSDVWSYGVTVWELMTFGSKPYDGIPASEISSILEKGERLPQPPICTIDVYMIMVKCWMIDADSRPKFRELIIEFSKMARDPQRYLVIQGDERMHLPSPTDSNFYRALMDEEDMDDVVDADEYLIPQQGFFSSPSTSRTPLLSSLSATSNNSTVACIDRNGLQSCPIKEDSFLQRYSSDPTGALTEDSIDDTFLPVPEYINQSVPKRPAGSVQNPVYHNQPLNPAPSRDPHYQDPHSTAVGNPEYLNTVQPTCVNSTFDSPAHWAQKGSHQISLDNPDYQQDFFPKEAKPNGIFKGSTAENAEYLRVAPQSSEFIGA
Series [9] has as its target EGFR (L858R/C797S) (Homo sapiens, UniProt P00533, C797S/L858R). Description: MSA (Mobility Shift Assay) kinase activity, EGFR-L858R-C797S. It is filed as biochemical. The method in brief: as §2
For series [10], the target named is T2, Ba/F3-FL-EGFR (Homo sapiens, UniProt P00533).
T2 construct: FL read as full length
Description: CellTiter-Glo proliferation, Ba/F3-FL-EGFR. It is filed as cell-based. To be noted: 72 hours, read-out: Ba/F3-FL-EGFR IC50/nM. The method in brief: as §1

For series [11], the target named is EGFR (L858R) (Homo sapiens, UniProt P00533, L858R). Briefly: MSA (Mobility Shift Assay) kinase activity, EGFR-L858R. It counts as biochemical. The method in brief:
as §2

For series [12], the system named is BaF3 (del19/T790M1C797S) tumor cells. Briefly: In vivo efficacy assay in BALB/c nude mice, subcutaneous BaF3 tumor. To be noted: 25 mg/kg, QD, oral. The method, then: In vivo efficacy assay in BALB/c nude mice. Details were as follows:
BaF3 (del19/T790M1C797S) tumor cells were cultured and inoculated into 6-8 weeks old female BALB/c nude mice (weighing about 20 g), with all mice being subcutaneously inoculated. The mice were cultured in an SPF-grade experimental environment, and all mice had free access to commercially certified standard diets. When the average tumor volume of the mice grew to about 150 mm^3, the test compound was orally administered daily. The dosage was as follows: blank group vehicle (DMSO/Solutol/H2O, 5/10/85). […] The tumor volume was measured three times a week with a two-dimensional caliper, and the animals were weighed every day. […] The volume calculation formula is: V=1/2a*b^2, where a represents the long diameter of the tumor, and b represents the short diameter of the tumor.

The mark [13] stands for this setting: 72 h, proliferation, 72 hours, CellTiter-Glo.

Sequence of EGFR (L858R) (P00533 25-1210 L858R): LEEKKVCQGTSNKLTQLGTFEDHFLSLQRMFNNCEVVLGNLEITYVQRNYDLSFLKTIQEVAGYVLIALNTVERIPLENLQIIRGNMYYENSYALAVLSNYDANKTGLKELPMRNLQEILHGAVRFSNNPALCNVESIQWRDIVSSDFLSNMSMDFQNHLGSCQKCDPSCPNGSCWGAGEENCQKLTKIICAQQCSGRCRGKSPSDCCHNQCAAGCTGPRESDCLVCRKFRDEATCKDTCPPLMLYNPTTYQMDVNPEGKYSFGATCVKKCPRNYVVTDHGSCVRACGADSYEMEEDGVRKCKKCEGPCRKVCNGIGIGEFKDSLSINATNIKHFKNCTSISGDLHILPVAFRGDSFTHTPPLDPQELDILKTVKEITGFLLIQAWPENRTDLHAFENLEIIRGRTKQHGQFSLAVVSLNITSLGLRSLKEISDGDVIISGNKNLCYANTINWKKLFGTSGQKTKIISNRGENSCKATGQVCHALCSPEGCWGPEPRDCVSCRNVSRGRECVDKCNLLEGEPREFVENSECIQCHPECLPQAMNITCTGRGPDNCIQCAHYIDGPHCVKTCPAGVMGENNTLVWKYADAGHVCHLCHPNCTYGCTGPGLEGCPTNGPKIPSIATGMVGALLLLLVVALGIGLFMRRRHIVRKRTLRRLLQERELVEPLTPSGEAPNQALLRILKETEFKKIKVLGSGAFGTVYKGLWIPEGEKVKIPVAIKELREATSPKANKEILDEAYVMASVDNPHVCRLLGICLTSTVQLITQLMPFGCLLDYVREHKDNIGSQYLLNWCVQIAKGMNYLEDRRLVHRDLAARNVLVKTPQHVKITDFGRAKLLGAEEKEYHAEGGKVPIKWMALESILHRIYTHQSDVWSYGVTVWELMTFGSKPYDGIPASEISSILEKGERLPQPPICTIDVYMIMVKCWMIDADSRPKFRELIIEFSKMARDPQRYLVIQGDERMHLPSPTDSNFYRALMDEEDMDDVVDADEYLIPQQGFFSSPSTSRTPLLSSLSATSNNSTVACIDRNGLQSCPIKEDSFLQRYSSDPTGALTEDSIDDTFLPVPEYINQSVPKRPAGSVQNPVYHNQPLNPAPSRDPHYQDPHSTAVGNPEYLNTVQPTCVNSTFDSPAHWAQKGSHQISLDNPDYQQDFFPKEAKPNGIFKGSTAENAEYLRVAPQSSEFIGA
Sequence of EGFR (wild-type) (P00533 25-1210): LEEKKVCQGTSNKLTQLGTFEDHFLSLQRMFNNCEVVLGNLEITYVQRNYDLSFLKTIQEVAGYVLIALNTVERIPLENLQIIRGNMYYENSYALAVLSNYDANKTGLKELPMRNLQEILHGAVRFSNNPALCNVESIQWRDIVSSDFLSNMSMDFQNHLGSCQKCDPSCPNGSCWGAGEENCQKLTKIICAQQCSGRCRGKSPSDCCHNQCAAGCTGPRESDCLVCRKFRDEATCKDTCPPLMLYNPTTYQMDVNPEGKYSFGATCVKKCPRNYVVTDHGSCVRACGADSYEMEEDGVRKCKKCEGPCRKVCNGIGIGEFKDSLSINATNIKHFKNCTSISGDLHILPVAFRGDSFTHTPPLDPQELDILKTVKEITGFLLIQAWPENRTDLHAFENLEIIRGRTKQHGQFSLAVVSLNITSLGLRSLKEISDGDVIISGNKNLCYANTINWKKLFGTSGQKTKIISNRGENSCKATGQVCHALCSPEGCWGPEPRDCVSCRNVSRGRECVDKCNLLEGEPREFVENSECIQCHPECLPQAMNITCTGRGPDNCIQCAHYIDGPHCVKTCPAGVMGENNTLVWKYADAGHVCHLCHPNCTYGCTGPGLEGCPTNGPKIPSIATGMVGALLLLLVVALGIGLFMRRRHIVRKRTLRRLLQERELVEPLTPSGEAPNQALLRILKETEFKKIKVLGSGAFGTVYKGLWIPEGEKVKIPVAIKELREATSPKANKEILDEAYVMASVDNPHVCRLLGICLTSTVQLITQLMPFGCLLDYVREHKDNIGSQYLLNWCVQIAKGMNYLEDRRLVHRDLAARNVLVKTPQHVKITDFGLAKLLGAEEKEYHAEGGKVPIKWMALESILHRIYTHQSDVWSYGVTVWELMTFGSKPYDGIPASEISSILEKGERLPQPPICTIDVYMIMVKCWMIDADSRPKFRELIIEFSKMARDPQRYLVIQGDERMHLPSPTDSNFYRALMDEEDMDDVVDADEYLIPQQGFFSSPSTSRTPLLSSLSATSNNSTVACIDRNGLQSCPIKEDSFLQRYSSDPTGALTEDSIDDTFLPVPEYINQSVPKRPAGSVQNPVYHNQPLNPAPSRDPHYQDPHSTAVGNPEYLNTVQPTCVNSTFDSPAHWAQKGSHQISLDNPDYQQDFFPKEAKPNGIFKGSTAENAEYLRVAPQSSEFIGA

Regarding `CC(C)c1ccc(N2CC(CS(C)(=O)=O)C2)c2cnc(Nc3ccnc(-c4cnn(S(C)(=O)=O)c4)n3)cc12` [Compound H7], the IC50 in [1] (setting [13]) is 12 nM; in series [2] it was 0.14 nM; in [6], 2.4 nM; in [9], 0.77 nM. Moreover, the GI50 worked out at 25 nM in series [3], 11 nM in series [7], 13 nM in [8] and 365 nM in series [10]. In addition, the values for the CLint scaled at 1 μM in [4] and in [5] were 21.3 mL/min/kg and 151 mL/min/kg, respectively.
Turning to `COC1CCN(c2nccc(Nc3cc4c(C(C)C)ccc(N5CC(NS(C)(=O)=O)C5)c4cn3)n2)CC1F` (centres unmarked) [Compound P29], the IC50 in series [1] (setting [13]) stood at 202 nM; in series [11], 1.3 nM; in series [2] it was 0.07 nM; in series [6], 8.4 nM; in series [9], 2.5 nM. For the same compound, the GI50 in [3] is 13 nM; in series [7], 13 nM; in series [8], 41 nM; in [10], 1090 nM. Besides, the CLint scaled at 1 μM in [4] worked out at 23.4 mL/min/kg; in series [5] it was 440 mL/min/kg.
As to `CC(C)c1ccc(N2CC(CS(C)(=O)=O)C2)c2cnc(Nc3ccnc(-c4cnn(S(=O)(=O)C5CCOCC5)c4)n3)cc12` [Compound H10], the IC50 worked out at 101 nM in series [1] (setting [13]); 8.1 nM in series [11]; 0.34 nM in [2]; 30.3 nM in series [6]; 7.2 nM in series [9]. Further, the GI50 in series [3] came out at 219 nM; in series [7], 54 nM; in series [8], 94 nM; in [10], 1080 nM.
As for `CC(C)c1ccc(N2CC(CS(C)(=O)=O)C2)c2cnc(Nc3ccnc(-c4cnn(S(=O)(=O)C5CCC5)c4)n3)cc12` [Compound H13], the IC50 was determined as 23 nM in series [1] (setting [13]); 1.8 nM in [11]; 0.91 nM in series [2]; 11.4 nM in [6]; 2.5 nM in series [9]. In addition, the GI50 in series [3] was 158 nM; in series [7], 18 nM; in series [8], 44 nM; in [10], 640 nM.
Consider `CC(C)c1ccc(N2CC(NS(C)(=O)=O)C2)c2cnc(Nc3ccnc(N4CCC(O)C(F)C4)n3)cc12` (centres unmarked) [Compound P21], for which the IC50 in [1] (setting [13]) came to 205 nM; in series [11], 1.9 nM; in series [2] it was 0.06 nM; in [6], 8.4 nM; in series [9] it was 2.3 nM. The GI50 amounted to 36 nM in series [3], 38.6 nM in [7], 76 nM in [8] and 1510 nM in [10]. In addition, the CLint scaled at 1 μM in series [4] is 13.6 mL/min/kg; in [5], 396 mL/min/kg.
Regarding `CC(C)c1ccc(N2CC(CS(C)(=O)=O)C2)c2cnc(Nc3ccnc(-c4cnn(S(=O)(=O)C5CC5)c4)n3)cc12` [Compound H1], the IC50 in [1] (proliferation, 72 hours, CellTiter-Glo) turned out to be 10 nM; in series [11] it was 1.6 nM; in series [2] it was 0.4 nM; in series [6], 3.9 nM; in series [9], 1.5 nM. The GI50 in series [3] was 16 nM; in series [7], 3.1 nM; in series [8] it was 5.9 nM; in series [10], 101 nM. In addition, the “Human Clint/(mL/min/kg)” value in [4] is recorded as below 8.6 mL/min/kg. Further, the “Mouse Clint/(mL/min/kg)” value in [5] turned out to be 174 mL/min/kg.
`CC(C)c1ccc(N2CC(NS(C)(=O)=O)C2)c2cnc(Nc3ccnc(N4CCC(O)C(C)(F)C4)n3)cc12` (centres unmarked) [Compound P45]: the IC50 in [1] (setting [13]) turned out to be 265 nM; in series [11], 4.1 nM; in series [2] it was 0.18 nM; in series [6], 20.7 nM; in [9], 7.6 nM. The GI50 in series [3] amounted to 38 nM; in [7], 61 nM; in [8], 181 nM; in [10], 2780 nM.
Regarding `CC(C)c1ccc(N2CC(CS(C)(=O)=O)C2)c2cnc(Nc3ccnc(-c4cnn(S(=O)(=O)N(C)C)c4)n3)cc12` [Compound H19], the IC50 in [1] (setting [13]) amounted to 57 nM; in series [11], 2.9 nM; in [2], 0.4 nM; in [6] it was 7.4 nM; in series [9] it was 4.6 nM. Besides, the GI50 in [3] came out at 123 nM; in series [7], 36 nM; in series [8], 64 nM; in series [10], 559 nM. For the same compound, the intrinsic clearance (CLint scaled) at 1 μM turned out to be 17.2 mL/min/kg in series [4] and 61.8 mL/min/kg in [5].
Turning to `C=CC(=O)Nc1cc(Nc2nccc(-c3cn(C)c4ccccc34)n2)c(OC)cc1N(C)CCN(C)C` [Osimertinib, osimertinib, reference compound], the IC50 in series [1] (72 h) is 906 nM. In addition, the “Tumor volume (mm^3)” value in series [12] (after 13 consecutive days of administration) is given as 3110 mm^3. This compound also returned an inhibition of tumour growth (TGI) in series [12] (after 13 consecutive days, based on final tumor volume) of 20%.
As to `CC(C)c1ccc(N2CC(NS(C)(=O)=O)C2)c2cnc(Nc3ccnc(N4CCC(O)C(F)(F)C4)n3)cc12` (centres unmarked) [Compound P30], the IC50 in series [1] (setting [13]) was 200 nM; in series [11] it was 3.5 nM; in series [2], 0.1 nM; in [6] it was 18.1 nM; in [9], 4.8 nM. The GI50 in series [3] stood at 47 nM; in [7], 48 nM; in series [8] it was 111 nM; in series [10], 2340 nM. Besides, the intrinsic metabolic clearance (CLint scaled) at 1 μM was below 8.6 mL/min/kg in [4] and 230 mL/min/kg in [5].
